Source: patent US8841325B2, “Immunomodulatory compounds for the restoration of vitamin D sensitivity in vitamin D resistant tumor cells” (Celgene Corporation, priority 2009, dated 2014)
Entries after “also recorded” stand apart in the source; their conditions may differ.

What was measured:
Type in all cases: cell-based
[1] = system: HBL-100 cells; experiment: Cell viability by neutral red assay, HBL-100; details: up to 6 days
Procedure: After 6 days treatment, cells were seeded into 24 well plates at a density of 1×10^4 cells/wells. After 24 h, cells were treated with reagents or vehicle for up to six days. At the end of the incubation period, medium was removed and cells were incubated with neutral red solution (40 μg/ml in phenol red and serum free DMEM) for 2 h at 37° C. After removal of the neutral red solution, wells were rinsed once with 1 ml 4% formal saline containing 0.5% CaCl2. Plates were inverted on paper towel to drain and 200 μl of elution fluid (1% acetic acid in 50% ethanol) was added. Following incubation at room temperature for 30 min with gentle shaking, absorbance at 550 nm was determined
In order to validate the previous results obtained in MDA-MB-231 cells, two other vitamin D resistant cell lines MCF-7/VD^R and HBL-100 cells, were investigated. First the effect of lenalidomide on these cells lines were investigated. To this end, cells were treated for up to 6 days with different concentrations of lenalidomide (0 μM up to 10 μM). Cell viability was measured by neutal red dye assay (FIG. 13).
(§1) More particularly, FIG. 13 illustrates the effects of lenalidomide treatment on MCF-7/VDR and HBL-100 viability. MCF-7/VDR and HBL-100 cells were treated for up to 6 days with different concentrations of lenalidomide (0 μM up to 10 μM). Cell viability was measured by neutral red dye assay. Results are mean of three independent experiments (each made in quadruplicate).
Cell viability was measured by neutral red dye assay (FIG. 14).
as §1, with “14” for “13”, “lenalidomide/1, 25-D3 co-treatment” for “lenalidomide treatment”, “(0.01” for “(0”, “1 μM) alone or in combination with different concentrations of 1, 25-D3 (0 for up to 1000 nM).” for “10 μM).”
To accomplish this, cells were treated for up to 6 days with different concentrations of a BCL-2 inhibitor, ABT-263 ([…]). Non-treated cells were used as a control. After 6 days of treatment, cell viability was measured by neutral red assay (FIG. 16). In the three cell lines, BCL-2 inhibition leads to cell death. The IC50 is almost equivalent in all cell lines (1 μM+/−0.2 μM).
More particularly, FIG. 16 illustrates the effects of BCL-2 inhibition on MCF-7VD^R and HBL-100 viability. MDA-MB-231, MCF-7/VD^R and HBL-100 cells were treated for up to 6 days with different concentrations of ABT-263 (0.2 up to 20 μM). Non-treated cells were used as a control. After 6 days of treatment, cell viability was measured by neutral red assay. Results are mean of three independent experiments (each made in quadruplicate).

[2] = system: MDA-MB-231 cells; experiment: Annexin V/PI staining analysed by FACS; details: for necrosis and apoptosis activation (propidium iodide and Annexin V staining): 1 μM lenalidomide or 100 nM 1,25-D3 alone; for necrosis and apoptosis activation (propidium iodide and Annexin V staining) / apoptosis assessed by Annexin V or PI staining: up to 6 days; for apoptosis assessed by Annexin V or PI staining: single agent: 1 nM compound or 100 nM 1,25 D3 alone
Procedure: Cells were seeded into 6 well plates at a density of 2×10^6 cells/well. Cells were treated with 1 μl/mL DMSO (control) or 1 nM 1-oxo-2-(2,6-dioxopiperidin-3-yl)-4-aminoisoindoline and 100 nM 1,25 D3, each alone or in combination for up to 6 days. Medium was removed by EDTA treatment, and cells were washed twice with ice-cold PBS. Cells were then resuspended into the buffer at a dilution of 1×10^6 cells/mL. 10^5 cells were then stained with Annexin V and Propidium Iodide (“PI”). Staining was analyzed by FACS. Results were expressed as the percentage of control Annexin V or PI staining where the control was cells treated with DMSO only. Results were from triplicate wells.
To assess the nature of MDA-MB-231 cell death (apoptosis or necrosis) induced by co-treatment of lenalidomide/1, 25-D3 cells were seeded into 25 cm2 flasks at a density of 2×10^6 cells/flask. […] Medium was removed by EDTA treatment and cells were washed twice with ice-cold PBS. Cells were then resuspended into the buffer at a dilution of 1×10^6 cells/ml. 10^5 cells were then stained with Annexin V and Iodure Propidium. Staining was analysed by FACS.
Cells were also treated with 0.1% DMSO as a control. […] Cells treated with 0.1% DMSO were used as a control (day 0). Cell lysates were probed for cleaved-PARP(C-PARP) and total PARP (T-PARP). Data shown are representative of three identical experiments.

[3] = system: MDA-MB-231 cells; experiment: Apoptosis protein array and Western blot (p53, p21, p27, claspin, BCL-2); details: for expression of the anti-apoptotic protein Bcl-2: 1 μM lenalidomide or 100 nM 1,25-D3 alone
Procedure: Cells were lysed in RIPA buffer containing 1% NP40, 0.5% sodium deoxycholate, 0.1% SDS and PBS and lysates containing 300 μg protein were probed with an R and D apoptosis protein array kit according to the manufacturers instructions (R&D catalogue number ARY009). Spots were visualised using the enhanced chemiluminescence Western blotting detection system (ECL, Amersham, N.J., USA). Densitometric analysis was performed using Adobe Photoshop CS2.
To determine the pathways and proteins involved in the increased apoptosis seen with the lenalidomide/1, 25-D3 combination treatment, whole proteins were extracted from cells taken from the different treatments and were used for probing with an apoptosis protein array, according to the manufacturer. FIG. 9 illustrates the effects. […] Cells were also treated with 0.1% DMSO as a control. Cells were lysed with RIPA buffer as described in the materials and methods, and 300 μg of protein from each of the samples was used for probing with the R& D apoptosis array according to the manufacturers instructions. Results are representative of 2 separate arrays performed. The protein array gives a semi quantitative analysis of changes in the key apoptosis and checkpoint pathway proteins. […] All these proteins are well known to be major pro-apoptotic or checkpoint regulatory proteins. […] All theses results were confirmed by Western blot (FIG. 10 (a)) and densitometry plots of the array and western blot bands/dots were carried out to quantitate the changed expression of these proteins (FIG. 10 (b)). Therefore, the increase in pro-apoptotic proteins coupled with a decrease in Bcl-2 may be responsible for the increased apoptosis seen with the combination treatment.
More particularly, FIG. 10 illustrates the effects of co-treatment lenalidomide/1, 25-D3 on p53 activation and p21, p27, claspin, and BCL-2 protein expression in MDA-MB-231 cells. […] Cells were also treated with 0.1% DMSO as a control. Whole proteins were extracted and probed for p53 (serine 15 and serine 392), p21, p27, claspin, and BCL-2, with b-actin as a house-keeping protein.

[4] = lenalidomide 0.01-1 μM alone or in combination with 1,25-D3 0-1000 nM, FIG. 14, p>0.05
[5] = 1 μM lenalidomide co-treatment with 100 nM 1,25-D3, up to 6 days

C=C1/C(=C\C=C2/CCC[C@]3(C)[C@@H]([C@H](C)CCCC(C)(C)O)CC[C@@H]23)C[C@@H](O)C[C@@H]1O [1,25-D3, 1α,25-dihydroxyvitamin D3]
differences in viability [1, 4]: No significant differences | necrosis and apoptosis activation (propidium iodide and Annexin V staining) ([2]; FIG. 8B): no effects | apoptosis assessed by Annexin V or PI staining ([2]; FIG. 5): no significant increase in apoptosis | expression of the anti-apoptotic protein Bcl-2 ([3]; up to 6 days): does not affect

Nc1cccc2c1CN(C1CCC(=O)NC1=O)C2=O (stereo not drawn) [Lenalidomide, 1-oxo-2-(2,6-dioxopiperidin-3-yl)-4-aminoisoindoline]
differences in viability ([1]; lenalidomide 0 μM up to 10 μM, FIG. 13, p>0.05): No significant differences | differences in viability [1, 4]: No significant differences | apoptosis assessed by Annexin V and PI staining ([2]; 1 nM compound in combination with 100 nM 1,25 D3, up to 6 days, FIG. 5): significant increase in apoptosis | Annexin V staining ([2]; 1 μM lenalidomide co-treatment with 100 nM 1,25-D3, up to 6 days, FIG. 8B): Annexin V staining was observed | necrosis and apoptosis activation (propidium iodide and Annexin V staining) ([2]; FIG. 8B): no effects | apoptosis assessed by Annexin V or PI staining ([2]; FIG. 5): no significant increase in apoptosis | BCL-2 expression [3, 5]: inhibits BCL-2 expression; also recorded: abolished by the combination | p21, p27 and claspin expression [3, 5]: induces activation | p53 activation (phosphorylation of serine 15 and serine 392) [3, 5]: induces p53 activation | p53 activation (phosphorylation of serine 15 and serine 392) ([3]; 1 μM lenalidomide only, up to 6 days): induces p53 activation | expression of the anti-apoptotic protein Bcl-2 ([3]; up to 6 days): does not affect | proapoptotic protein claspin ([3]; combination of lenalidomide and 1,25D3 versus either agent alone): upregulated by the combination, but not with either agent alone | proapoptotic proteins P21, P27 and P53S392 ([3]; lenalidomide in combination with vitamin D): upregulated | proapoptotic proteins P21, P27 and P53S392 ([3]; lenalidomide on its own): upregulated
